Results reported in paper PMC6351562, “Structure, function, and inhibition of drug reactivating human gut microbial β-glucuronidases” (Scientific Reports, 2019).
Values joined by “and” are separate entries in the source; they are usually repeats but may differ in a detail not shown here. Identical values can stand only once.

Tests used:
Format in all cases: biochemical
[1] = target: Clostridium perfringens GUS (CpGUS) (Clostridium perfringens, UniProt Q8VNV4); settings: pH 6.5; 37 °C
[2] = target: T1, Eubacterium eligens GUS (EeGUS) (Lachnospira eligens, UniProt C4Z6Z2); assay: In vitro DCF-G processing assay (UPLC); settings: DCF-G as substrate, 400 µM; pH 6.5; 37 °C
T1 sequence (C4Z6Z2 1-611): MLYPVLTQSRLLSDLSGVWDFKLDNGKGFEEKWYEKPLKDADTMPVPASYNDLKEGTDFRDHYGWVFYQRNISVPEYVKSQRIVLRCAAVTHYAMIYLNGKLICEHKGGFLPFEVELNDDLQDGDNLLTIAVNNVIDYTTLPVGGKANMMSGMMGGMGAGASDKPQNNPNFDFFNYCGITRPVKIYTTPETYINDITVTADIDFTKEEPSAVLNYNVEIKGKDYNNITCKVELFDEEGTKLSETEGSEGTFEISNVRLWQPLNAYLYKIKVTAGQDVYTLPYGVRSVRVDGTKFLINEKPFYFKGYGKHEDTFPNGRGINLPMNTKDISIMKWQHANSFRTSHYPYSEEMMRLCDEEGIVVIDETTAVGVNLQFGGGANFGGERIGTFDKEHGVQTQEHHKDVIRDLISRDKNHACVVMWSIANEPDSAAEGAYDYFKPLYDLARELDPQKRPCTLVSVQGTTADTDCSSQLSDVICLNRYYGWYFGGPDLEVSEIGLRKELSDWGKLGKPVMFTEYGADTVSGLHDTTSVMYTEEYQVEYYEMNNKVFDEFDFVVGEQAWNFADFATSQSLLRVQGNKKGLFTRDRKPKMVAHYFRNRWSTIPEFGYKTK

[3] = target: T2, Faecalibacterium prausnitzii GUS (FpGUS) (Faecalibacterium duncaniae, UniProt C7H4D2); assay: In vitro DCF-G processing assay (UPLC); settings: DCF-G as substrate, 400 µM; pH 6.0; 37 °C
T2 sequence (C7H4D2 1-608): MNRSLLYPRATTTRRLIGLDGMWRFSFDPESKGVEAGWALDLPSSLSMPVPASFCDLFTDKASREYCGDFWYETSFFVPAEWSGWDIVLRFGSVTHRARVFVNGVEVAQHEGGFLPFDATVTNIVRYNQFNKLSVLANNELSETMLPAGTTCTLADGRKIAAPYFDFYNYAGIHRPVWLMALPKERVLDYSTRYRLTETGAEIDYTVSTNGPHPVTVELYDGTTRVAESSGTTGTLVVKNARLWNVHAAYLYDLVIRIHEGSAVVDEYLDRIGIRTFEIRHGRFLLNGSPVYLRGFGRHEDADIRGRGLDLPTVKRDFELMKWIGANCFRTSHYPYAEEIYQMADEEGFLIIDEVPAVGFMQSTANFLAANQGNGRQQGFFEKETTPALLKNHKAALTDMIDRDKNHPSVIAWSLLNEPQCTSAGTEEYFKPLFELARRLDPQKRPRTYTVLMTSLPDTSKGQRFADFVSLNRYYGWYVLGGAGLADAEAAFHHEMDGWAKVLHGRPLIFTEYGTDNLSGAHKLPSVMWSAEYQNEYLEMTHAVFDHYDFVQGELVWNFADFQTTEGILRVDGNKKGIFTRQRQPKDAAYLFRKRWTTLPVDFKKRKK

[4] = target: T3, Lactobacillus rhamnosus GUS (LrGUS) (Lacticaseibacillus rhamnosus, UniProt A0A2A5L2J1); assay: In vitro DCF-G processing assay (UPLC); settings: DCF-G as substrate, 400 µM; pH 4.5; 37 °C
T3 sequence (A0A2A5L2J1 1-603): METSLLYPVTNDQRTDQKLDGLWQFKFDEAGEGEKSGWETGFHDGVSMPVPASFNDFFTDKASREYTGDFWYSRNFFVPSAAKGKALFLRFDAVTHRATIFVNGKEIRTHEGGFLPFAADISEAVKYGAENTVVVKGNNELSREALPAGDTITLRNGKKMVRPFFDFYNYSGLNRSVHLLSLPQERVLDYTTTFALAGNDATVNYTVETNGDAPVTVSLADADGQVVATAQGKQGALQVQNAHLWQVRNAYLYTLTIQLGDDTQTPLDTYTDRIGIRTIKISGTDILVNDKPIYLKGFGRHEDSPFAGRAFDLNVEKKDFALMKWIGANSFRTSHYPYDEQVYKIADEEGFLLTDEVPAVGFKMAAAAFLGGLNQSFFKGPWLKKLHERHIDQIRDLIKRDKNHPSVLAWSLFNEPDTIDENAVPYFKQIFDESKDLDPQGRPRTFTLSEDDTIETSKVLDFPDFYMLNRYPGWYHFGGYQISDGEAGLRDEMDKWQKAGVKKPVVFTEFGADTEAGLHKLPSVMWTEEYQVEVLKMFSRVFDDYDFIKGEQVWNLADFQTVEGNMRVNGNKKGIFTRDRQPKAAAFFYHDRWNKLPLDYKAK

[5] = target: T4, Bacteroides dorei GUS (BdGUS) (Phocaeicola dorei, UniProt I9FNR0); assay: In vitro DCF-G processing assay (UPLC); settings: DCF-G as substrate, 400 µM; pH 6.0; 37 °C
T4 sequence (I9FNR0 21-875): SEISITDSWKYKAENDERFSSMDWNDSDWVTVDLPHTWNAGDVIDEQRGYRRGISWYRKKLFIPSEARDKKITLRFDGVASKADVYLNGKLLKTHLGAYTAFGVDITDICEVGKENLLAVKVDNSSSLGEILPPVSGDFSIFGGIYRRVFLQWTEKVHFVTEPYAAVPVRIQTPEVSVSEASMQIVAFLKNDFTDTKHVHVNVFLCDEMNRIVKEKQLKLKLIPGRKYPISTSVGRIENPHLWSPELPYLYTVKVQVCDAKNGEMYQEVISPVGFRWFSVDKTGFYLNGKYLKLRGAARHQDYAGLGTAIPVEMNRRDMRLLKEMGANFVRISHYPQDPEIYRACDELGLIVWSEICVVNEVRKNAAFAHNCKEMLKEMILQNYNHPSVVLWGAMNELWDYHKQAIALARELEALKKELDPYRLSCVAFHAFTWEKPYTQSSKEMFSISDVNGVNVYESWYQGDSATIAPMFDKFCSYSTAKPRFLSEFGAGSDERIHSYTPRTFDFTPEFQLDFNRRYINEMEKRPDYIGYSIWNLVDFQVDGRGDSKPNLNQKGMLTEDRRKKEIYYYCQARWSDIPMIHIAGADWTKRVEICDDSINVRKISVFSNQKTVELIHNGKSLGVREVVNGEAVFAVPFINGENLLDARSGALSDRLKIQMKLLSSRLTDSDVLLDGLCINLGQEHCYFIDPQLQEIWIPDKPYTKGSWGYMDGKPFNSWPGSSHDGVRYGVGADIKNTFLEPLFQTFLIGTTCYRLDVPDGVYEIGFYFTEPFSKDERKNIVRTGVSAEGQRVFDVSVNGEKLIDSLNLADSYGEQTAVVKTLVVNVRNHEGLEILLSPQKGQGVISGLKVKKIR

In the case of O=C(Cc1ccccc1Nc1c(Cl)cccc1Cl)O[C@@H]1O[C@H](C(=O)O)[C@@H](O)[C@H](O)[C@H]1O [DCF-G, Diclofenac acyl β-D-glucuronide], the “Apparent kcat” value [1] is reported as 61.5 ± 0.6 s⁻¹, the “Apparent kcat” value [2] is reported as 138 s⁻¹ and 138 ± 2 s⁻¹ and the “Apparent kcat” value [3] is reported as 32 ± 3 s⁻¹. The “Apparent kcat” value [4] was 10 s⁻¹ and 10 ± 1 s⁻¹ and the “Apparent kcat” value [5] was 9.8 ± 0.6 s⁻¹.
